{"source": "patent US6217866A", "about": "“Monoclonal antibodies specific to human epidermal growth factor receptor and therapeutic methods employing same” (Rhone-Poulenc Rorer International (Holdings), Inc., priority 1995, dated 2001)", "key": {"KB cells": {"tested_on": "KB cells", "experiment": "colony inhibition assay of KB cells", "assay_type": "cell-based, human", "procedure": "KB cells were seeded in petri dishes (50×15 mm^2, NUNC) at a concentration of 2×10^2 cells per dish. […] On the sixth day cultures were fed with fresh medium containing the above ingredients. On the 15th day the cultures were washed with PBS, fixed with 4% v/v formaldehyde in PBS for 15 min. and stained with hematoxylin. Number of formed colonies (25 cells) was then determined."}, "[1]": {"tested_on": "EGF receptors exposed on KB cells", "experiment": "competitive radioimmunoassay with 125I 108 monoclonal antibody on KB cells", "assay_type": "binding, human", "procedure": "The cells were then washed, solubilized in 0.5N NaOH and their radioactivity was determined in a counter (Kontron, Switzerland). Non-specific binding was determined by the addition of 100-fold excess of unlabelled monoclonal antibody."}}}
{"substance": "epidermal growth factor [EGF]", "values": [{"measurement": "size of KB cell colonies", "setting": "KB cells; EGF", "value": "increase in the size of KB cell colonies"}, {"measurement": "number of colonies compared to cells incubated in absence of growth factor", "setting": "KB cells; EGF 160 nM, 15 days after seeding", "value": 150, "unit": "%"}, {"measurement": "maximal level of competition with binding of the antibody to the receptor", "setting": "[1]", "value": "about 70%"}]}
